Reference: PMC12051620, “Molecular basis underlying the specificity of an antagonist AA92593 for mammalian melanopsins” (The Journal of Biological Chemistry, 2025)

Assays:
[1] = test system: Xenopus Opn4x L207^5.42F mutant; experiment: GsX GloSensor assay with Gsα/q11; type: cell-based; conditions: 16.7 μM AA92593, COS-1 cells
Text: (§1) Similar to human and mouse melanopsins (Fig. 5, F and H, I, M, and N), the introduction of a Phe residue at position 207^5.42 in Xenopus Opn4x and Chicken Opn4-1 increased their susceptibility of the melanopsins for AA92593 by ∼53% and ∼37%, respectively, although the substitutions reduced light-dependent cAMP responses by the melanopsins (Fig. 6, C and F, G and H). […]
(§2) For GloSensor assay, opsins, GloSensor assay sensor (coded by pGlo-22F), and NanoBiT-tagged G proteins were transiently expressed in COS-1 cells (kindly provided from Dr David Farrens, Oregon Health and Science University) using PEI as described previously ([24], [52]). […] For GFP-fluorescence microscopy, a 35-mm cell culture dish (IWAKI) was transfected with 2 μg melanopsin-GFP plasmid and 8 μg PEI in 400 μl Opti-mem and 1.2 ml D-MEM. […]
(§3) The transfected COS-1 cells were incubated at 37 °C, 5% CO2 for 2 days, and the medium was aspirated and exchanged with 50 μl of HBSS (145 mM NaCl, 10 mM D-glucose, 5 mM KCl, 1 mM MgCl2, 1.7 mM CaCl2, 1.5 mM NaHCO3, 10 mM Hepes, pH 7.4), containing 33.3, 20, 10, 2, 0.2, 0.02, 0.002, or 0 μM AA92593, 0.5% dimetyl sulfoxide (DMSO), and 4% (vol/vol) GloSensor cAMP reagent stock solution. […] Then, the cells were incubated at room temperature for 1 h, and luminescence changes were monitored. […] Luminescence was measured using GM-2000 or GM-3510 microplate reader (Promega). […]

[2] = test system: chicken Opn4-1 L207^5.42F mutant; experiment: GsX GloSensor assay with Gsα/q11; type: cell-based; conditions: 16.7 μM AA92593, COS-1 cells
Text: as §1, §2, §3

COc1ccc(S(=O)(=O)N2CCCCC2)cc1C [AA92593]
increase in susceptibility for AA92593 vs WT [1]: ~53%
increase in susceptibility for AA92593 vs WT [2]: ~37%
